The results in this text go back to patent US20110251216A1, “COMPOSITIONS AND METHODS FOR INHIBITING EZH2” (The Regents of The University of Michigan, priority 2010, published 2011).

What all share (type): cell-based
Assay [1] relates to breast cell line HME infected with EZH2 adenovirus. Description: basement membrane matrix invasion assay, EZH2 overexpressing HME cells. The procedure: (§1) A, Dose response of isoliquiritigenin on inhibiting EZH2 mediated repression. B, A reconstituted basement membrane invasion chamber assay was used to assess the invasion of breast epithelial cell line infected with EZH2 and control adenoviruses as well as SET domain mutant EZH2 adenovirus. EZH2 treated cells were also treated with SAHA, the HDAC inhibitor and isoliquiritigenin, the small molecule inhibitor of EZH2 and the control small molecule phloretin.
For invasion assays, the breast cell lines HME was infected with EZH2 adenovirus. Forty-eight hours post-infection, cells were seeded onto the basement membrane matrix (EC matrix, Chemicon, Temecula, Calif.) present in the insert of a 24-well culture plate. Fetal bovine serum was added to the lower chamber as a chemoattractant with or without 2 doses of small molecule inhibitors. After 48 hours, the non-invading cells and EC matrix were gently removed with a cotton swab. Invasive cells located on the lower side of the chamber were measured colorimetrically by treating with 150 μl of 10% acetic acid and the absorbance measured at 560 nm using a spectrophotometer.

The next assay addresses T1, EZH2 (Homo sapiens, UniProt Q15910).
T1 construct: expressed in transfected cells; host or cells: Primary breast cancer cells infected with EZH2 adenovirus
In words: high throughput screen, E-cadherin promoter luciferase reporter in EZH2 adenovirus infected cells. Conditions: final compound concentration about 5 μM, 24 hours. Here is the method: A high throughput screening protocol was used to identify small molecule inhibitors of EZH2. Primary breast cancer cells were transfected with the E-cadherin promoter luciferase reporter gene and infected with the EZH2 adenovirus to suppress luciferase expression 48 hours prior to compound addition. Eighteen hours prior to compound addition, cells were trypsinized and distributed into 384-well plates in 60 μl of medium using the Multidrop equipment. At time zero, compounds were transferred from 1.5 mM DMSO stocks to the cell plates in a final compound concentration of about 5 μM. […] After 24 hours, the expressed luciferase activity was measured by adding 50 μl of the medium and 10 μl of Steady-Glo luciferase reagent (Promega). Sample plates were read in the Pherastar plate reader (BMG Labtech). Each plate in the screen contains 320 compounds to be tested plus 64 control wells placed in the outer two columns on each side of the plate (>50,000 compounds are screened). […]
A high throughput screening protocol was used to identify small molecule inhibitors of EZH2. […] After 24 hours, the expressed luciferase activity was measured by adding 50 μl of the medium and 10 ul of Steady-Glo luciferase reagent (Promega). Sample plates were read in the Pherastar plate reader (BMG Labtech). […]
A general note: A reporter such as luciferase makes a cellular process visible.

In assay [2] the test system is EZH2 mediated E cadherin repression. In words: EZH2 mediated E cadherin repression, SYBR green RT-PCR and dose response. Here is the method: A, Chemical structure of the flavonoid isoliquiritigenin. B, Quantitative SYBR green RT-PCR of EZH2 and E cadherin transcripts in cell lines over expressing EZH2 and control adenoviruses. RT-PCR on each sample was performed in duplicate, and a ratio was calculated relative to the housekeeping genes GAPDH. Transcripts were also measured in cells that were treated with isoliquiritigenin or other small molecules.
as §1

Each structure is given as a SMILES string.

T1 sequence (Q15910 whole entry): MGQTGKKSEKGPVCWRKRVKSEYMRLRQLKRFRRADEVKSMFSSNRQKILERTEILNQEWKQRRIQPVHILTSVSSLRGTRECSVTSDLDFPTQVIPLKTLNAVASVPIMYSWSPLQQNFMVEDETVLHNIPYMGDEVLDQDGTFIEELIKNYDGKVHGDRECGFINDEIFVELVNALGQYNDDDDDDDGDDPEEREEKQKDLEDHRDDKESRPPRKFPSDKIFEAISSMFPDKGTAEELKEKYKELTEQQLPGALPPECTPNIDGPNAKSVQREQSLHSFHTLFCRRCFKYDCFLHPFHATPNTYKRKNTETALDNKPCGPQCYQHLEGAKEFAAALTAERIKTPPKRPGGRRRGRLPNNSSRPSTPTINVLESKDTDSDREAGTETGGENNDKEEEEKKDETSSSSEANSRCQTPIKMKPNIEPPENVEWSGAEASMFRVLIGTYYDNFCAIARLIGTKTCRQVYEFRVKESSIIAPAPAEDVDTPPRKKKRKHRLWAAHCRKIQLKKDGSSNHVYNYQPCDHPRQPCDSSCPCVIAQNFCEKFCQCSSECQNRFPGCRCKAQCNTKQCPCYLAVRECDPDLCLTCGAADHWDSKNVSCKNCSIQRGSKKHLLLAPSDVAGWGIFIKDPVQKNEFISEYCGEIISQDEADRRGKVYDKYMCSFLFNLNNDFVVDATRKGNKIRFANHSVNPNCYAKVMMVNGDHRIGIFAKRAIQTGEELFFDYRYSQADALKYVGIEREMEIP
T1 sequence (O75530 whole entry partner): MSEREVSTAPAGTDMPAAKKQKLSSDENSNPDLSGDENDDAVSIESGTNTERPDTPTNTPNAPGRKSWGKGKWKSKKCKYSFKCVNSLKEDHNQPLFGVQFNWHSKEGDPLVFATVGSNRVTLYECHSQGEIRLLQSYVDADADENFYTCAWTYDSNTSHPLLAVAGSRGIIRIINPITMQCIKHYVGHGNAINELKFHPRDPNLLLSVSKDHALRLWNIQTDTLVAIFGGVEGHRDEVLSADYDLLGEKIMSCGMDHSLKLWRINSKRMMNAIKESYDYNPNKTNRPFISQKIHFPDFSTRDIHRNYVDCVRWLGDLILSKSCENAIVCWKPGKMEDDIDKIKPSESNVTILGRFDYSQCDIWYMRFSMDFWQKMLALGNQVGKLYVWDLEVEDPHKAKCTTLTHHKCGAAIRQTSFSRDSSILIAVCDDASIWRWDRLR
T1 sequence (Q15022 whole entry partner): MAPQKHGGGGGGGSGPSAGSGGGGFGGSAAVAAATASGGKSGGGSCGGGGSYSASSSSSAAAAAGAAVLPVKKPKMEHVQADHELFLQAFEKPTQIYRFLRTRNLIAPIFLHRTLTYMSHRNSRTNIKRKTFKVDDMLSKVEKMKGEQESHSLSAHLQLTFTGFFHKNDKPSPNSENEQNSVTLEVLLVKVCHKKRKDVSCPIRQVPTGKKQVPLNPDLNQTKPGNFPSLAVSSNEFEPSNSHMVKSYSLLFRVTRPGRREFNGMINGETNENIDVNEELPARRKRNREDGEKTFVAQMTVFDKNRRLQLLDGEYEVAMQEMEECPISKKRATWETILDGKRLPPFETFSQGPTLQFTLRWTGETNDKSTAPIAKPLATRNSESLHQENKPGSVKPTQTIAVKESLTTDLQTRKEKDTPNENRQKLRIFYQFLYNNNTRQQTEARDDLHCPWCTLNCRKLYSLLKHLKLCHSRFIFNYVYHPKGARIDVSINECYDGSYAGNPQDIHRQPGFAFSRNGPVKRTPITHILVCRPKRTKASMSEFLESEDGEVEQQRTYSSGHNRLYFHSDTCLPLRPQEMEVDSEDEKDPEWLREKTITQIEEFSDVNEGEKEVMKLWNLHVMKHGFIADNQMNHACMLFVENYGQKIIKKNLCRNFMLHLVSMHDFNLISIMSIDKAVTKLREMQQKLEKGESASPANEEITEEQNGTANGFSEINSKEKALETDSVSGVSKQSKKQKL

With `O=C(CCc1ccc(O)cc1)c1c(O)cc(O)cc1O` [control small molecule, phloretin, reference compound], the “invasion mediated by EZH2 overexpression” value in assay [1] is given as “did not inhibit the invasion”.

In the case of `O=C(/C=C/c1ccc(O)cc1)c1ccc(O)cc1O` [isoliquiritigenin], the “EZH2 inhibitory activity in high throughput screen” value on EZH2 is “potent small molecule inhibitor of EZH2 activity”. In assay [1], the “invasion mediated by EZH2 overexpression” value is “inhibited this invasion”. Also, the “inhibition of EZH2 mediated E cadherin repression” value in assay [2] (cells over expressing EZH2, FIG. 5B) is “significantly inhibit”. In addition, the “concentration that optimally inhibits EZH2 mediated E cadherin repression” value in assay [2] (dose response, FIG. 6A) worked out at 16 µM.
